Laboratory results taken from paper PMC8610377, “Target identification for small-molecule discovery in the FOXO3a tumor-suppressor pathway using a biodiverse peptide library” (Cell Chemical Biology, 2021).

Tests used:
[1] = test system: polo-box domain of human polo-like kinase 1 (PLK1); assay: selectivity: substrate recognition by polo-box domain; format: binding
9J10/14-3-3ε interaction [2] = target: T1, 9J10/14-3-3ε interaction (Homo sapiens, UniProt P62258); assay: competitive microscale thermophoresis (MST); format: binding; conditions: 20 nM labeled 14-3-3ε, 1 μM cognate peptide (EC80), 2% DMSO, 25°C; mean of three independent experiments
T1 construct: A synthetic gene construct encoding full length human 14-3-3ε; made in house; host or cells: E. coli BL21(DE3)
T1 sequence (P62258 1-255): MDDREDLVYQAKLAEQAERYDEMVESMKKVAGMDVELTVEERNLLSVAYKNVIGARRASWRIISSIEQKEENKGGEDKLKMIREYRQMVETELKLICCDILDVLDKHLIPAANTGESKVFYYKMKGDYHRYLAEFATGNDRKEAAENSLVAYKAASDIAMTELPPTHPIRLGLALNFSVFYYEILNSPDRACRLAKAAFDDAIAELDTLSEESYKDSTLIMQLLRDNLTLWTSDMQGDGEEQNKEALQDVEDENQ
Experimental: (§1) Protein purity was visualized by running SDS-PAGE.
The 14-3-3ε protein was labeled with NT-647-NHS fluorescent dye using the Monolith Protein Labeling Kit (Cat# MO-L011, NanoTemper Technologies). Assays were carried out in 10 mM Hepes, 150 mM NaCl and 0.01% Tween 20. For the direct binding assay, 10 μL of labeled protein at a final concentration of 20 nM was mixed with 10 μL of cognate peptide. For the competitive assay, 10 μL of labeled protein at a final concentration of 20 nM was mixed with 1 μM of cognate peptide at the EC80 concentration determined by prior titration using a 16-point serial dilution by direct-binding MST. […] An initial ‘‘CapillaryScan’’ was performed to scan for fluorescence across the length of the capillary tray to determine the exact position of each capillary before the MST measurement was started. Test compound in 2% final DMSO concentration was assayed at 16 different concentrations by serial dilution, and data were analyzed using NanoTemper analysis software with ‘‘T-jump + Thermophoresis’’ settings. The change in thermophoresis between different experimental conditions was expressed as the change in the normalized fluorescence (ΔFnorm), which is defined as Fhot/Fcold (F-values correspond to average fluorescence values between defined areas in the curve under steadystate conditions under control (Fcold) or experimental (Fhot) conditions). […]

9J10/14-3-3ε interaction [3] = target: T1, 9J10/14-3-3ε interaction; assay: FP competition, TAMRA-p9J10Min binding to 14-3-3ε; conditions: 10nM TAMRA-p9J10Min, His-14-3-3ε 1.5 μM, top concentration 200 μM, 0.4% DMSO; mean of three independent experiments; read-out: IC50, FP
Experimental: Protein purity was visualized by running SDS-PAGE. […] Compound dilution plates, black 384 well NBS assay plates and tip racks were loaded into the Cytomat as indicated by the scheduling software. […] Test compounds were diluted to 3X final concentration in the dilution plates. 10 μL of diluted compound was added into each well of the assay plate followed by 10μL of […]-3-3ε and 10μL of TAMRA-p9J10Min. Plates were incubated at room temperature for 20 min on the robot's deck or in the Cytomat before the Fluorescence Polarisation was read using the BMG PheraStar plate reader. Test compounds were assayed in triplicate. […] DMSO controls were run alongside all experimental compounds and % inhibition normalised to these controls. All other experimental conditions were as described above.

14-3-3ε = target: T2, 14-3-3ε (Homo sapiens, UniProt P62258); assay: STD-NMR; format: binding; conditions: 100 μM 9J10, 10 μM 14-3-3ε, 2% d6-DMSO
T2 sequence (P62258 1-255): T1 sequence (P62258 1-255)
Experimental: as §1
1H NMR and STD spectra were recorded with a Bruker Avance-III HD 600 MHz at 298 K. Bruker TopSpin software was used to acquire and process the NMR data. NMR samples were prepared in D2O, with 100 μM 9J10 peptide (LNRTPGRRRN(p-Serine)N-acid) (Sigma-Aldrich), and 10 μM 14-3-3ε protein. For STD NMR measurements standard Bruker pulse sequence stddiffesgp.3 was used, the on-resonance frequency was set to be 0 ppm, and the off-resonance frequency at −40 ppm. The number of scans was typically 64, both the saturation pulses and relaxation delay were set to be 5 s and the power of the shaped pulse for saturation was set at 40 dB. Experiments with the varying concentrations of CU7218 were performed by mixing appropriate volume of the compound in DMSO and the final DMSO concentration was adjusted to 2.0% by using d6-DMSO.

With `Cc1c(C(=O)O)sc2[nH]c(=S)[nH]c(=O)c12` [CU7218] the “disruption of substrate recognition by PLK1 polo-box domain” value [1] was “failed to disrupt substrate recognition”, the IC50 (9J10/14-3-3ε interaction [2]) was 26.5 µM and the IC50 (9J10/14-3-3ε interaction [3]) was 111 µM. For the same compound, the “9J10 STD signal intensity with CU7218” value (14-3-3ε) was “markedly reduced the 9J10 STD signal intensity” and the “lowest CU7218 concentration markedly reducing the 9J10 STD signal” value (14-3-3ε; tested 50-250 μM) was no less than 150 µM.
